From US12466822B2, “Heterocyclic compounds as immunomodulators” (Incyte Corporation, priority 2016, dated 2025)

Target: T1, PD-1/PD-L1 protein/protein interaction (recombinant human PD-L1 protein (19-238), recombinant human PD-1 protein (25-167)) (Homo sapiens, UniProt Q9NZQ7)
T1 construct: Recombinant human PD-L1 protein (19-238) with a His-tag at the C-terminus; purchased AcroBiosystems PD1-H5229 (PD-L1-His); PD1-H5257 (PD-1-Fc)
Test: PD-1/PD-L1 Homogeneous Time-Resolved Fluorescence (HTRF) Binding Assay
Conditions: 25° C., PBS buffer (pH 7.4), 40 minutes preincubation with inhibitors
Outline: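 Fc-tagged human PD-1 (25-167) and His-tagged PD-L1 (19-238), listed as […] and 10 nM final, preincubated 40 min with inhibitors in PBS pH 7.4, 0.05% Tween-20, 0.1% BSA, 1% DMSO, 25 °C. Eu anti-IgG/APC anti-His added, 60 min, 665/620 nm HTRF ratio; IC50 fitted from percent control activity.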

T1 sequence (Q9NZQ7 19-238): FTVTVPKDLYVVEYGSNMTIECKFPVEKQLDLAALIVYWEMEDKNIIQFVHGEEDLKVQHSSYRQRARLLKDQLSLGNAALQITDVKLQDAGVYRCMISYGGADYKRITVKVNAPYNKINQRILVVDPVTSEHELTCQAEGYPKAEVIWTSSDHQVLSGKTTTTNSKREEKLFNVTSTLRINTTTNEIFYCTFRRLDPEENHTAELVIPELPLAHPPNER

Compound	IC50 [nM]
C[C@@]1(O)CCN(Cc2cnc3c(Nc4cccc(-c5cccc(Nc6nccc7cc(CN8CC[C@@H](O)C8)cnc67)c5Cl)c4Cl)nccc3c2)C1 [Example 76, (R)-1-((8-((2,2′-dichloro-3′-((3-(((R)-3-hydroxypyrrolidin-1-yl)methyl)-1,7-naphthyridin-8-yl)amino)-[1,1′-biphenyl]-3-yl)amino)-1,7-naphthyridin-3-yl)methyl)-3-methylpyrrolidin-3-ol]	≤ 10
OCCNCc1cnc2c(Nc3cccc(-c4cccc(Nc5nccc6cc(CN7CC[C@@H](O)C7)cnc56)c4Cl)c3Cl)nccc2c1 [Example 77, (R)-1-((8-((2,2′-dichloro-3′-((3-(((2-hydroxyethyl)amino)methyl)-1,7-naphthyridin-8-yl)amino)-[1,1′-biphenyl]-3-yl)amino)-1,7-naphthyridin-3-yl)methyl)pyrrolidin-3-ol]	≤ 10
Cc1c(Nc2nccc3cc(CN4CC[C@@H](O)C4)cnc23)cccc1-c1cccc(Nc2nccc3cc(CN4CC(C(=O)O)C4)cnc23)c1Cl [Example 80, (R)-1-((8-((2-chloro-3′-((3-((3-hydroxypyrrolidin-1-yl)methyl)-1,7-naphthyridin-8-yl)amino)-2′-methyl-[1,1′-biphenyl]-3-yl)amino)-1,7-naphthyridin-3-yl)methyl)azetidine-3-carboxylic acid]	≤ 10
Cc1c(Nc2nccc3cc(CN4CC[C@@H](O)C4)cnc23)cccc1-c1cccc(Nc2nccc3cc(CNCCC(=O)O)cnc23)c1Cl [Example 81, (R)-3-(((8-((2-chloro-3′-((3-((3-hydroxypyrrolidin-1-yl)methyl)-1,7-naphthyridin-8-yl)amino)-2′-methyl-[1,1′-biphenyl]-3-yl)amino)-1,7-naphthyridin-3-yl)methyl)amino)propanoic acid]	≤ 10
Cc1c(Nc2nccc3cc(CN4CC[C@@H](C(=O)O)C4)cnc23)cccc1-c1cccc(-c2nc3c(o2)CN(C(=O)CN(C)C)C3)c1C [Example 84, (R)-1-((8-((3′-(5-(dimethylglycyl)-5,6-dihydro-4H-pyrrolo[3,4-d]oxazol-2-yl)-2,2′-dimethyl-[1,1′-biphenyl]-3-yl)amino)-1,7-naphthyridin-3-yl)methyl)pyrrolidine-3-carboxylic acid]	≤ 10

The remaining lines, values ahead:

IC50 [nM]	Compound
≤ 10	O=C(O)[C@@H]1CCN(Cc2cnc3c(Nc4cccc(-c5cccc(Nc6nccc7cc(CN8CC[C@@H](O)C8)cnc67)c5Cl)c4Cl)nccc3c2)C1 [Example 78, (R)-1-((8-((2,2′-dichloro-3′-((3-(((R)-3-hydroxypyrrolidin-1-yl)methyl)-1,7-naphthyridin-8-yl)amino)-[1,1′-biphenyl]-3-yl)amino)-1,7-naphthyridin-3-yl)methyl)pyrrolidine-3-carboxylic acid]
≤ 10	Cc1c(Nc2nccc3cc(CN4CC[C@@H](O)C4)cnc23)cccc1-c1cccc(Nc2nccc3cc(CN4CC[C@@H](C(=O)O)C4)cnc23)c1Cl [Example 79, (R)-1-((8-((2-chloro-3′-((3-(((R)-3-hydroxypyrrolidin-1-yl)methyl)-1,7-naphthyridin-8-yl)amino)-2′-methyl-[1,1′-biphenyl]-3-yl)amino)-1,7-naphthyridin-3-yl)methyl)pyrrolidine-3-carboxylic acid]
≤ 10	O=C(O)[C@@H]1CCN(Cc2cnc3c(Nc4cccc(-c5cccc(Nc6nccc7cc(CN8CC[C@H](O)C8)cnc67)c5Cl)c4Cl)nccc3c2)C1 [Example 82, (R)-1-((8-((2,2′-dichloro-3′-((3-(((S)-3-hydroxypyrrolidin-1-yl)methyl)-1,7-naphthyridin-8-yl)amino)-[1,1′-biphenyl]-3-yl)amino)-1,7-naphthyridin-3-yl)methyl)pyrrolidine-3-carboxylic acid]
≤ 10	O=C(O)[C@H]1CCN(Cc2cnc3c(Nc4cccc(-c5cccc(Nc6nccc7cc(CN8CC[C@H](O)C8)cnc67)c5Cl)c4Cl)nccc3c2)C1 [Example 83, (S)-1-((8-((2,2′-dichloro-3′-((3-(((S)-3-hydroxypyrrolidin-1-yl)methyl)-1,7-naphthyridin-8-yl)amino)-[1,1′-biphenyl]-3-yl)amino)-1,7-naphthyridin-3-yl)methyl)pyrrolidine-3-carboxylic acid]
